Measured values taken from PMC6072251 (ACS Omega, 2018).
Values after ≈ are worked out from the molar mass of the structure shown. Like-named read-outs stand apart in the source and are kept apart here.

Key:
S. mutans biofilm = S. mutans biofilm formation and inhibition assay; assay type: cell-based, Streptococcus mutans UA159; conditions: for IC50: Streptococcus mutans
S. mutans growth = S. mutans growth inhibition assay; assay type: cell-based, Streptococcus mutans UA159; conditions: Streptococcus mutans, read-out: Growth MIC50
Gtfs = experiment: Zymogram assay of Gtf enzymatic activity; assay type: biochemical, S. mutans UA159; conditions: compared to DMSO control
S. mutans = experiment: Cell viability / growth of S. mutans; assay type: cell-based
S. sanguinis = experiment: Growth of commensal S. sanguinis; assay type: cell-based, Streptococcus sanguinis SK36
S. gordonii = experiment: Growth of commensal S. gordonii; assay type: cell-based, Streptococcus gordonii DL1
S. mutans colonization = experiment: Sucrose-dependent drosophila colonization model; assay type: in vivo; conditions: 50 μM, feeding assay, after 7 days of infection
[1] = tested on: S. mutans UA159-induced dental caries; experiment: Rat model of dental caries; assay type: in vivo, Fischer 344 rats; conditions: for bacterial colonization (cfu/mandible) / body weight over the course of the study: 100 μM twice daily for 4 weeks; for bacterial colonization (cfu/mandible): compared with control group treated with water; for body weight over the course of the study: in comparison with the control group; for oral tissue (mucosal and gingival tissues) at sacrifice: treated vs nontreated rats

Row | Structure (SMILES) | IC50 (S. mutans biofilm; read-out: Biofilm IC50, S. mutans biofilm, NI: no inhibition) [µM] | MIC50 (S. mutans growth) [µM] | glucan production / Gtf inhibition in zymogram assay (in words) (Gtfs) | viability of the biofilms and the planktonic cells (S. mutans; S. mutans) | inhibition of cell viability (S. mutans; S. mutans, at 400 μM) [%] | inhibition at 52 µM (S. mutans; Streptococcus mutans, read-out: growth inhibited) [%] | decrease of cell density (S. sanguinis; S. sanguinis, at 400 μM) | inhibition at 52 µM (S. sanguinis; Streptococcus sanguinis, read-out: growth inhibited) [%] | decrease of cell density (S. gordonii; S. gordonii, at 400 μM) | inhibition at 52 µM (S. gordonii; Streptococcus gordonii, read-out: growth inhibited) [%] | fluorescence in the guts of flies fed Gfp-tagged S. mutans (S. mutans colonization) | bacterial colonization (cfu/mandible) [1] | body weight over the course of the study [1] | oral tissue (mucosal and gingival tissues) at sacrifice [1] | IC50 (S. mutans biofilm; read-out: Biofilm IC50) [µM] | Selectivity (S. mutans biofilm; biofilm inhibition over growth inhibition of S. mutans)
1 | Oc1cc(O)cc(/C=C/c2ccc(O)c(O)c2)c1 [Compound 8, piceatannol] | 52 ± 6 | 564 ± 37.8 (≈ 138 µg/mL) | greatly reduced glucan production | not significantly impacted | 37 | < 10 | 15–18% | < 10 | 15–18% | < 10 | significant decrease in fluorescence | not statistically significant | did not lose weight | no obvious differences |  | 
2 | O=C(/C=C/c1ccc(O)c(O)c1)O[C@@H]1C[C@](O)(C(=O)O)C[C@@H](O)[C@H]1O [Compound 10] |  | 1720 ± 53 (≈ 611 µg/mL) |  |  |  |  |  |  |  |  |  |  |  |  | 518 ± 85 | 3.3
3 | Oc1ccc(/C=C/c2cc(O)cc(O)c2)cc1 [Compound 7, resveratrol] |  | 546 ± 15.9 (≈ 125 µg/mL) | marginal inhibition |  |  |  |  |  |  |  |  | not statistically significant | did not lose weight | no obvious differences |  | 
